Experimental data taken from PMC12203577, “Molecular Basis of Pseudomonas syringae pv actinidiae Levansucrase Inhibition by a Multivalent Iminosugar” (Journal of Agricultural and Food Chemistry, 2025).
Where “and” joins values, the source holds several entries; their conditions need not be identical. Equal entries are not always repeated.

Legend:
Lscβ = molecular target: T1, Lscβ (Pseudomonas syringae pv. actinidiae, UniProt A0A2V0R8Q9); experiment: Sucrose hydrolysis assay on recombinant Lscβ (DNS glucose quantification); assay type: biochemical, Pseudomonas syringae pv actinidiae biovar 3 (Psa3); conditions: for % Residual activity (sucrose hydrolysis), Lscβ: 100 μM iminosugar; for % Residual activity (sucrose hydrolysis), Lscβ / IC50: 60 mM sucrose
T1 construct: 6His-tag (TEV-cleavable) (cleaved yes); made in house; host or cells: E. coli BL21 (DE3)
T1 sequence (A0A2V0R8Q9 whole entry): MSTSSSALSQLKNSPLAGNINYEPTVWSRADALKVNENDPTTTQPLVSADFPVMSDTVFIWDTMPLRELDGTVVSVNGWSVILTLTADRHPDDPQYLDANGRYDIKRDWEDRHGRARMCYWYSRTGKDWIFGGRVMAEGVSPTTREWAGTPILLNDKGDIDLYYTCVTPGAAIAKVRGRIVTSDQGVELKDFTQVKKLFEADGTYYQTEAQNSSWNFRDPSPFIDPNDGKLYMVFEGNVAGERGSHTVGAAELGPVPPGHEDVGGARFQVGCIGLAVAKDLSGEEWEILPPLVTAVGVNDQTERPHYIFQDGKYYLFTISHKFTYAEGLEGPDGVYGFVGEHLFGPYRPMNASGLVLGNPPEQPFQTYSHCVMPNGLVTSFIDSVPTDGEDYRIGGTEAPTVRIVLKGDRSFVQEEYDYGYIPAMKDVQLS
Protocol: (§1) Lscβ and Lscγ were produced and purified as reported by Luti et al. 2021. Briefly, the lscβ and lscγ genes of Psa3 KL103 were cloned in the pNIC28-Bsa4 plasmid and used to transform E. coli BL21 (DE3) cells (New England Biolabs). At A 600 (absorbance at 600 nm) = 0.6, protein expression was induced by 0.4 mM IPTG for 20 h at 18 °C. Then, cells were harvested by […], and recombinant proteins were purified using IMAC Sepharose High Performance (Ge Healthcare) charged with Ni^2+. Subsequently, the proteins were subjected to TEV (Tobacco Etch Virus protease) treatment to remove the 6His-tag and further purified by gel chromatography on a HiLoad 16/600 Superdex 200 pg column driven by an Akta Pure 25 L system (GE Healthcare, Waukesha, WI, USA). Pure proteins were stored in 10 mM Tris/HCl at pH 7.0 at −80 °C until further analysis.
The enzymatic assays to detect the inhibitory potential of the compounds on sucrose hydrolysis activity of Lscβ and Lscγ were performed according to Luti et al. 2021 in a total volume of 100 μL, using a Bis/Tris buffer (50 mM, pH 7.0). […] After the reactions were stopped, glucose concentration was measured using the DNS (3,5-dinitrosalicylic acid) method to determine spectrophotometrically the inhibitory activity of each compound. The enzymatic activity, measured as μmol/min·mL, was expressed as %residual enzymatic activity=[Ai/Ac]×100 , where A i is the absorbance of the samples with the inhibitors and A c is the absorbance of the control.
(§2) The inhibition levels of compounds 1–4 were analyzed by measuring their IC50. To quantify the IC50 values, we set up different enzymatic reactions at various concentrations of the inhibitor, and we monitored the effects of such concentrations on the enzymatic activity. The assay system was prepared as described above using a Bis/Tris buffer at pH 7.0 and 60 mM sucrose as the substrate. The inhibitor concentrations tested for both enzymes were 0, 0.01, 0.1, 0.5, 1, 10, 25, 50, 100, 200, 400, and 800 μM. Glucose released by the two enzymes was quantified using the DNS method and a microplate spectrophotometer. IC50 was defined as the concentration of a compound causing 50% inhibition, and it was calculated by drawing a dose–response graph for each compound using GraphPad Prism version 8.0 for Windows, GraphPad Software, San Diego, California, USA (www.graphpad.com). The response was expressed on the Y-axis as a percentage of enzymatic activity, and the […].
(§3) The inhibitory mechanism of TPIS (3) was determined by studying the dependence between the main kinetic parameters (K Mapp and V maxapp) and the inhibitor concentrations. Data obtained were fitted using the Michaelis–Menten equation and a nonlinear fitting software. Then, data were analyzed using the double reciprocal plot (Lineweaver–Burk method). Secondary plots were used to calculate the K i values by using GraphPad Prism version 8.0. In detail, the inhibitory mechanism of TPIS (3) was analyzed using 0, 25, 60, and 100 μM inhibitors for Lscβ and 0, 10, 25, and 100 μM for Lscγ. For each concentration, we set the sucrose concentration to 0, 10, 30, 50, 100, 200, 400, and 600 mM, and reactions were performed as previously described using an enzyme concentration of 0.02 μg/μL. After the reactions were stopped, glucose from enzymatic hydrolysis was quantified using the DNS method.

Lscγ [1] = molecular target: T2, Lscγ (Pseudomonas syringae pv. actinidiae, UniProt A0A2V0R8Y2); experiment: Sucrose hydrolysis assay on recombinant Lscγ (DNS glucose quantification); assay type: biochemical, Pseudomonas syringae pv actinidiae biovar 3 (Psa3); conditions: for % Residual activity (sucrose hydrolysis), Lscγ: 100 μM iminosugar; for % Residual activity (sucrose hydrolysis), Lscγ / IC50: 60 mM sucrose
T2 construct: 6His-tag (TEV-cleavable) (cleaved yes); made in house; host or cells: E. coli BL21 (DE3)
T2 sequence (A0A2V0R8Y2 whole entry): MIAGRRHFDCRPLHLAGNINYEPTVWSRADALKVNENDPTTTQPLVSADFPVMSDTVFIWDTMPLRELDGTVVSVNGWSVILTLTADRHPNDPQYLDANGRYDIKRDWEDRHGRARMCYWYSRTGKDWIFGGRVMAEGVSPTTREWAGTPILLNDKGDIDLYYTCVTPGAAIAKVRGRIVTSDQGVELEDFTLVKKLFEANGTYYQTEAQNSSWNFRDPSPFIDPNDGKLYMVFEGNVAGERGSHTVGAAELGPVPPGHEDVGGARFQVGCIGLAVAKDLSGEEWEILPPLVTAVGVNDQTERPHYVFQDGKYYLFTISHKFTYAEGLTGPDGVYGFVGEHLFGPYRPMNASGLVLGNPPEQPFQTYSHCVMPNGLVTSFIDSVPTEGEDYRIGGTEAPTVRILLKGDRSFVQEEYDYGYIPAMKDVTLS
Protocol: as §1
The enzymatic assays to detect the inhibitory potential of the compounds on sucrose hydrolysis activity of Lscβ and Lscγ were performed according to Luti et al. 2021 in a total volume of 100 μL, using a Bis/Tris buffer (50 mM, pH 7.0). The experiments were performed at an enzyme concentration of 0.03 μg/μL with 60 mM sucrose and a final inhibitor concentration (compounds 1–4) of 100 μM, on a 10-min time frame. After the reactions were stopped, glucose concentration was measured using the DNS (3,5-dinitrosalicylic acid) method to determine spectrophotometrically the inhibitory activity of each compound. The enzymatic activity, measured as μmol/min·mL, was expressed as %residual enzymatic activity=[Ai/Ac]×100 , where A i is the absorbance of the samples with the inhibitors and A c is the absorbance of the control.
as §2, §3

Lscγ [2] = molecular target: T2, Lscγ; experiment: Levan synthesis turbidity assay with Lscγ; assay type: biochemical, Pseudomonas syringae pv actinidiae biovar 3 (Psa3)
Protocol: (§4) Inhibition of levan synthesis was monitored using a turbidity assay on a microtiter plate as reported by Luti et al. 2021 with slight modifications. The reaction was performed at 37 °C in 200 μL of 50 mM sodium acetate buffer at pH 5.0 containing 60 mM sucrose and 10 μg of purified Lscγ protein per mL of reaction mixture. The turbidity of the samples at 400 nm was recorded every 5 min using a BioTek Synergy H1 Hybrid Multimode Reader. The percent inhibition was determined at 60 min of incubation, at the maximum absorbance, and was determined as defined in the previous section, Sucrose Hydrolysis Assay. For the IC50 determinations, we used a 0–200 μM TPIS (3) concentration and defined the activity as previously reported. For macroscopic evaluation of levan synthesis inhibition, a 10 μL drop of 1 μg/μL Lscγ was applied on an agar sucrose (5% w/v) plate alone or with 100 μM TPIS (3). A picture was taken after 24 h at 4 °C.

[3] = test system: CFBP1390 whole cell lysate; experiment: Macroscopic levan synthesis by lysate on agar sucrose plate, CFBP1390; assay type: biochemical, P. syringae pv phaseolicola; conditions: 100 μM, 72 h
Protocol: (§5) To extract total protein, cell pellets were resuspended in 1 mL of ice-cold RIPA Buffer with Protease Inhibitors Cocktail, and cells were lysed by sonication using a Fisher Scientific Model 120 Sonic Dismembrator. The sonication step was carried out on ice with three pulses of 15 s at 30% amplitude, each followed by 30 s cooldown. Sonicated samples were cleared by centrifugation for 15 min at 15,000 × g at 4 °C. The pellet was discarded, while the supernatant was collected and stored at −20 °C for further analysis. The hydrolysis enzymatic reaction was carried out as previously described with 60 mM sucrose and 7 μL of cell lysate for 1.5 h. After the samples were boiled, glucose was quantified using the DNS method. For macroscopic evaluation of levan synthesis inhibition, a 10 μL drop of lysates was applied on an agar sucrose (5% w/v) plate alone or with 100 μM TPIS (3). A picture was taken after 72 h at 4 °C.

[4] = test system: CFBP8414 whole cell lysate; experiment: Macroscopic levan synthesis by lysate on agar sucrose plate, CFBP8414; assay type: biochemical, P. syringae pv actinidiae biovar 5; conditions: 100 μM, 72 h
Protocol: as §5

[5] = test system: CFBP8414 whole cell lysate; experiment: Sucrose hydrolysis by whole cell lysate, CFBP8414; assay type: biochemical, P. syringae pv actinidiae biovar 5; conditions: 100 μM, 60 mM sucrose
Protocol: (§6) The strains CFBP8414 (P. syringae pv actinidiae biovar 5) and CFBP1390 (P. syringae pv phaseolicola) were purchased from the CIRM-CFBP French Collection for Plant Associated Bacteria, while KL103 (P. syringae pv actinidiae biovar 3) was isolated in Tuscany in 2015, as reported by Campigli et al., 2023.
(§7) Bacterial cells were grown in 50 mL of Nutrient Sucrose (5% w/v) for 48 h at 180 rpm at 27 °C. Cell suspensions were diluted to an A 600 of 1 (10^7 cfu/mL) in water, and 1 mL aliquots were centrifuged for 5 min at 15,000 × g at 4 °C. The supernatant was discarded, while the pellet was stored at −20 °C for further analysis.
as §5, with “For macroscopic evaluation of levan synthesis inhibition, a 10 μL drop of lysates was applied on an agar sucrose (5% w/v) plate alone or with 100 μM TPIS (3). A picture was taken after 72 h at 4 °C.” left out

KL103 whole cell lysate [6] = experiment: Sucrose hydrolysis by whole cell lysate, KL103; assay type: biochemical, P. syringae pv actinidiae biovar 3; conditions: 100 μM, 60 mM sucrose
Protocol: as §6, §7
as §5, with “For macroscopic evaluation of levan synthesis inhibition, a 10 μL drop of lysates was applied on an agar sucrose (5% w/v) plate alone or with 100 μM TPIS (3). A picture was taken after 72 h at 4 °C.” left out

Jack bean α-mannosidase = conditions: cited from earlier work
[7] = test system: CFBP1390 whole cell lysate; experiment: Sucrose hydrolysis by whole cell lysate, CFBP1390; assay type: biochemical, P. syringae pv phaseolicola; conditions: 100 μM, 60 mM sucrose
Protocol: as §6, §7
as §5, with “For macroscopic evaluation of levan synthesis inhibition, a 10 μL drop of lysates was applied on an agar sucrose (5% w/v) plate alone or with 100 μM TPIS (3). A picture was taken after 72 h at 4 °C.” left out

Lscγ [8] = molecular target: T2, Lscγ; experiment: Macroscopic evaluation of levan synthesis by Lscγ on agar sucrose plate; assay type: biochemical, Pseudomonas syringae pv actinidiae biovar 3 (Psa3); conditions: 100 μM, 10 μL drop of 1 μg/μL Lscγ, 24 h
Protocol: as §4

KL103 whole cell lysate [9] = experiment: Macroscopic levan synthesis by lysate on agar sucrose plate, KL103; assay type: biochemical, P. syringae pv actinidiae biovar 3; conditions: 100 μM, 72 h
Protocol: as §5

OC[C@H]1NC[C@@H](O)[C@@H]1O [Compound 1, 1,4-dideoxy-1,4-imino-D-arabinitol]
% Residual activity (sucrose hydrolysis), Lscβ (Lscβ; pH 7.0): 103 ± 6% | % Residual activity (sucrose hydrolysis), Lscβ (Lscβ; pH 7.0, listed as DAB-1 (1)): do not affect Lscβ activity at all | IC50 (Lscβ; pH 7.0): > 100 µM | % Residual activity (sucrose hydrolysis), Lscγ (Lscγ [1]; pH 7.0): 101 ± 12% | IC50 (Lscγ [1]; pH 7.0): > 100 µM

OCCc1cn(CCCCCCN2C[C@@H](O)[C@H](O)[C@H]2CO)nn1 [Compound 4]
% Residual activity (sucrose hydrolysis), Lscβ (Lscβ; pH 7.0): 93 ± 12% | IC50 (Lscβ; pH 7.0): > 1000 µM | inhibition at 100 µM (Lscβ; pH 7, read-out: inhibitory activity on sucrose hydrolysis, Lscβ): ~7% | remaining activity at 1000 µM (Lscβ; read-out: residual activity at 1 mM, Lscβ): 40% | % Residual activity (sucrose hydrolysis), Lscγ (Lscγ [1]; pH 7.0): 126 ± 50% | % Residual activity (sucrose hydrolysis), Lscγ (Lscγ [1]; pH 7.0, listed as PIS (4)): does not inhibit | IC50 (Lscγ [1]; pH 7.0): > 1000 µM

OC[C@@H]1[C@@H](O)[C@H](O)CN1CCO[C@@H]1O[C@H](CO)[C@@H](O)[C@H](O)[C@H]1O [Compound 2]
IC50 (Lscβ; pH 7.0): > 100 µM | % Residual activity (sucrose hydrolysis), Lscγ (Lscγ [1]; pH 7.0): 85 ± 8% | IC50 (Lscγ [1]; pH 7.0): > 100 µM

OC[C@@H]1[C@@H](O)[C@H](O)CN1CCCCCCn1cc(COCC(COCc2cn(CCCCCCN3C[C@@H](O)[C@H](O)[C@H]3CO)nn2)(COCc2cn(CCCCCCN3C[C@@H](O)[C@H](O)[C@H]3CO)nn2)COCc2cn(CCCCCCN3C[C@@H](O)[C@H](O)[C@H]3CO)nn2)nn1 [Compound 3]
residual polymerization activity (levan production), Lscγ (Lscγ [2]; 100 μM, pH 5.0, 60 min): 46 ± 3% | IC50 (Lscγ [2]; pH 5.0, 60 min of incubation, estimated, read-out: IC50, polymerization activity of Lscγ): 37 µM | macroscopic levan synthesis, CFBP1390 lysate [3]: able to limit levan synthesis | macroscopic levan synthesis, CFBP8414 lysate [4]: able to limit levan synthesis | residual sucrose hydrolysis activity, CFBP8414 lysate [5]: 44 ± 11% | residual sucrose hydrolysis activity, KL103 lysate (KL103 whole cell lysate [6]): 54 ± 7% | % Residual activity (sucrose hydrolysis), Lscβ (Lscβ; pH 7.0): 49 ± 5% | IC50 (Lscβ; pH 7.0): 22 µM and 22.4 µM | inhibition mechanism, Lscβ (Lscβ; KMapp increases, Vmaxapp does not vary, versus sucrose): competitive inhibitor | Ki (Lscβ; secondary plot, pH 7.0, read-out: K i, sucrose hydrolysis, Lscβ): 29 µM | rp/n (rp divided by valency), Lscβ (Lscβ; sucrose hydrolysis): > 11 | IC50 (Jack bean α-mannosidase; already demonstrated in earlier work): 34 µM | rp/n, Jack bean α-mannosidase (Jack bean α-mannosidase; relative potency with respect to monovalent counterpart per active unit, earlier work): 10 | residual sucrose hydrolysis activity, CFBP1390 lysate [7]: 55 ± 3% | macroscopic levan production by Lscγ on agar sucrose plate (Lscγ [8]): limits levan production | macroscopic levan synthesis, KL103 lysate (KL103 whole cell lysate [9]): able to limit levan synthesis | % Residual activity (sucrose hydrolysis), Lscγ (Lscγ [1]; pH 7.0): 36 ± 5% | IC50 (Lscγ [1]; pH 7.0): 60.9 µM | inhibition mechanism, Lscγ (Lscγ [1]; KMapp increases, Vmaxapp not affected, versus sucrose): competitive inhibitor | Ki (Lscγ [1]; secondary plot, pH 7.0, read-out: K i, sucrose hydrolysis, Lscγ): 20 µM

OC[C@H]1O[C@@](CO)(O[C@H]2O[C@H](CO)[C@@H](O)[C@H](O)[C@H]2O)[C@@H](O)[C@@H]1O [Sucrose]
KMapp of Lscβ for sucrose (Lscβ; substrate, pH 7.0): KMapp (mM) 57 ± 11 | KMapp of Lscγ for sucrose (Lscγ [1]; substrate, pH 7.0): KMapp(mM) 59 ± 12
